Patent publication US12502400B2, “Method of preventing of systemic-to-pulmonary-artery shunt thrombosis” (Chiesi Farmaceutici S.p.A., priority 2017, dated 2025)
Where two headings read alike, the source gives them in different places. Values belong to the molecule of their own block, whether it stands above or below them.

Assays:
integrin αIIbβ3 = molecular target: T1, integrin αIIbβ3 (Homo sapiens, UniProt P05106+P08514); assay: ADP-induced firm adhesion of platelets to surface-immobilized VWF in flow; format: cell-based; conditions: platelets from pediatric CHD patients or healthy adults
T1 construct: the platelet integrin receptor αIIbβ3 that stabilizes adhesion by engaging with ligands such as VWF; endogenous in cells; host or cells: platelets from pediatric patients with CHD or healthy adults
Procedure: A parallel-plate flow chamber was used to assess platelet accumulation on surface-immobilized plasma VWF at a wall shear rate of 1,600s-1.29, 31 In brief, a polyclonal anti-VWF antibody was absorbed overnight (4° C.) to a six-well tissue culture plate. Subsequently, the plate was washed and nonspecific interactions blocked by the addition of TBS containing 3% BSA, pH 7.4 (30 min, 37° C.). Human or murine (VWF^HA1) plasma obtained from heparinized whole blood was added and the plates placed at 37° C. for an additional hour prior to use. Citrated whole blood was then perfused over the reactive substrate for 3 minutes, followed by the addition of platelet buffer lacking CaCl2 for 1 min. The number of platelets attached per unit area was determined by offline analysis (ImagePro Plus, Media Cybernetics, Bethesda, MD) of recorded digital images. For GPIbα inhibition studies, mAb 6D1 (10 μg/ml) was added to anticoagulated human blood for 10 min before use.
Although GPIbα initiates platelet deposition at arterial shear rates, this adhesive interaction is labile in nature permitting platelets to translocate in response to forces generated by flowing blood. Ultimately it is the platelet integrin receptor αIIbβ3 that stabilizes adhesion by engaging with ligands such as VWF in response to ADP and/or thrombin.

[1] = system: human platelet thrombus formation; assay: Human platelet thrombus formation in laser-injured arterioles of avatar mice; format: in vivo, VWFHA1 mutant mice; conditions: for platelet accumulation at sites of arteriole injury: platelets from neonates and older pediatric CHD patients; for Contrast estimate (mean difference in thrombus size pre- and post-administration): linear mixed model
Procedure: Administration of anesthesia, insertion of venous and arterial catheters, fluorescent labeling of human platelets, and surgical preparation of the cremaster muscle in 12 week old male VWF HA1 mice have been previously described.
Human platelets (700K/μL) were continuously infused (25 μl/min) through a catheter placed in the ipsilateral femoral artery 2 min prior to and during laser-induced injury to ensure a level of circulating cells equivalent to humans.^33 Injury to the vessel wall of arterioles (40-65 μm diameter) was performed with a pulsed nitrogen dye laser applied through a 20× water-immersion Olympus objective. Human platelet-vessel wall interactions were visualized by fluorescence microscopy using a system equipped with a Yokogawa CSU-22 spinning disk confocal scanner, iXON EM camera, and 488-nm laser line (Revolution XD, Andor Technology, South Windsor, CT) to detect Calcein-AM-labeled cells, respectively. The extent of thrombus formation was assessed for 3 min after injury and the maximal area (μm^2) of coverage determined by off-line analysis (ImagePro Plus, Media Cybernetics, Bethesda, MD).
A minimum of 5 mice per patient group were studied (2 and 4 arterial segments pre and post-cangrelor per mouse, respectively).
To compare mean thrombus areas between different treatment groups, we fit linear mixed models with random intercepts for each study animal. Linear mixed models permit comparison of mean differences between treatment groups while also considering the effect of the clustering of the data on the SEs resulting from multiple measurements obtained from each mouse used in intravital studies. In the case of platelet aggregation studies, values are presented as mean±SEM. A 2-tailed Student t test was used for comparisons between control conditions and treatments. Differences with values of P<0.05 were considered statistically significant.

[2] = early institution within 12 hours of surgery; cited from earlier work
platelet aggregation = assay: Phase 1 PK/PD clinical trial in post-operative neonates with CHD, LTA and microfluidics; format: in vivo, human; conditions: infusion 0.5 or 0.25 μg/kg/min for one hour; post-operative neonates with shunt
From the text: FIG. 7. Pharmacodynamic properties of cangrelor administered to neonates with CHD in the early post-operative period. A phase 1 clinical trial is currently being conducted to assess the drug plasma levels and effects on platelet aggregation using LTA and microfluidics. […] B, microfluidic results under the same conditions as outlined for LTA.

[3] = adults with coronary artery disease, cited from earlier work
[4] = cited from earlier work
[5] = system: platelets in PPACK-treated whole blood; assay: Multichannel microfluidic device, platelet accumulation on collagen under flow; format: cell-based; conditions: Homo sapiens, read-out: effective IC50 (surface fluorescence at 300 s)
Procedure: Microfluidic devices with 8 individual channels (250 μm wide×60 μm-high) were fabricated in polydimethylsiloxane (PDMS) as previously described. The device was reversibly vacuum-sealed to a glass slide with its flow channels aligned perpendicularly to a patterned type 1 collagen surface (1 mg/ml). To visualize platelet accumulation over time, an Alexa Fluor 488 conjugated, non-function blocking mouse anti-human CD61 (GPIIb/IIIa) antibody was added (1:50 ratio) 7 min prior to performing experiments (0.125 μg/ml final concentration).
Whole blood from neonates with single ventricle pathology or healthy adults was perfused over the prothrombotic surface at an initial wall shear rate of 100 s^−1 by withdrawal from a single outlet into a syringe pump (Harvard Apparatus Pump 11 Elite, Holliston, MA). Platelet accumulation was visualized (10× objective lens) using an automated inverted microscope system (DMI6000, Leica) equipped with a CCD camera (DFC365FX, Leica). A custom stage insert held three microfluidic devices allowing replicate testing of four conditions. Images were captured in 30 s intervals for a total of 5 min. Platelet fluorescence intensities, which are directly proportional to the total platelet mass were measured and analyzed with Image J software (Image J; NIH, Bethesda, MD). The center 65% of the prothrombotic region was selected for analysis to avoid edge effects. […]

purified platelets = assay: ADP-induced platelet aggregation by light transmission aggregometry (LTA), EC50 for ADP; format: cell-based, human; conditions: LTA with fibrinogen
Procedure: Purified platelets were suspended to a final concentration of 400,000/μl in platelet buffer containing 145 mM NaCl, 10 mM Hepes, 0.5 mM Na2HPO4, 5 mM KCl, 2 mM MgCl2, 1 mM CaCl2), 0.10% glucose, pH 7.4. […] Human fibrinogen (final concentration 200 μg/ml) was added to the platelet suspensions just prior to activation. Aggregation was assessed using a Chronolog Lumi-Aggregometer (model 540 VS, Chronolog, Havertown, PA) and permitted to proceed for 6 min after the addition of agonist. The results are reported as maximum percent change in light transmittance from baseline with platelet buffer used as a reference.
We next determine the functional response of platelets from neonates as well as older patients with congenital heart disease to ADP stimulation. This was accomplished by calculating EC50 values for the agonist using isolated platelets in fibrinogen-supplemented buffer.

firm adhesion of platelets to surface-immobilized VWF in response to ADP (integrin αIIbβ3): prevent the firm adhesion
Molecule: abciximab: function blocking antibody to integrin αIIbβ3
platelet accumulation at sites of arteriole injury [1]: nearly abrogated platelet-vessel wall interactions | abrogated platelet accumulation ([1]; platelets from pediatric cardiac patients, laser-injured arterioles, P<0.0001): > 90%

Molecule: CC(=O)Oc1ccccc1C(=O)O [aspirin]
risk of shunt thrombosis and death [2]: reduced the risk of shunt thrombosis and death

IC50 ([5]; whole blood from neonates with CHD (single ventricle physiology)): 0.00069 µM
Molecule: CSCCNc1nc(SCCC(F)(F)F)nc2c1ncn2[C@@H]1O[C@H](COP(=O)(O)OP(=O)(O)C(Cl)(Cl)P(=O)(O)O)[C@@H](O)[C@H]1O [cangrelor]
effect on platelet aggregation assessed by LTA and microfluidics (platelet aggregation): efficacy and rapid reversibility | risk of severe bleeding ([3]; PCI): without significantly increasing the risk of severe bleeding | ischemic events during PCI [3]: significantly reduce ischemic events | restoration of hemostasis, as assessed by bleeding time ([4]; after cessation of infusion of a supratherapeutic dose): ≤ 10 min | full platelet function recovery as determined by response to ADP ([4]; after cessation of infusion): ≤ 60 min | IC50 ([5]; whole blood from healthy adults): 0.00095 µM | Contrast estimate (mean difference in thrombus size pre- and post-administration) ([1]; platelets from adults): 3,501 μm2 | Contrast estimate (mean difference in thrombus size pre- and post-administration) ([1]; platelets from age group 0-28 days): 2,261 μm2 | Contrast estimate (mean difference in thrombus size pre- and post-administration) ([1]; platelets from age group 1-10 years): 3,314 μm2 | Contrast estimate (mean difference in thrombus size pre- and post-administration) ([1]; platelets from age group 11-18 years): 3,475 μm2 | reduced thrombus size ([1]; platelets from neonates and older CHD patients, all cases, doses recommended for PCI, P<0.0001): > 45% | platelet accumulation at sites of arteriole injury [1]: did not completely prevent platelet accumulation | reduction in thrombus size ([1]; platelets from pediatric cardiac patients, 30 μg/kg bolus then 4 μg/kg/min infusion, P<0.0001): ~45%

EC50 (purified platelets; platelets from CHD patients 0-28 days): 3.4 ± 0.1 µM | EC50 (purified platelets; platelets from CHD patients 1-10 years): 2.9 ± 0.1 µM | EC50 (purified platelets; platelets from CHD patients 11-18 years): 3.2 ± 0.2 µM
Molecule: Nc1ncnc2c1ncn2[C@@H]1O[C@H](COP(=O)(O)OP(=O)(O)O)[C@@H](O)[C@H]1O [ADP]
EC50 (purified platelets; platelets from healthy adults): 3.2 ± 0.2 µM
